Laboratory results published in patent US7504095B2, “Method for obtaining precursor Z and use thereof for the production of a means for therapy of human molybdenum cofactor deficiency” (Technische Universitaet Braunschweig, priority 2004, dated 2009).

Legend:
[1] = Oxidation of precursor Z in D2O/DCl on exposure to air, followed by 1H-NMR; type: physicochemical; conditions: D2O and DCl, exposed to air
Protocol: One- (1D) and two-dimensional (2D) ^1H-NMR-correlation spectra (COSY) were recorded at 300 K with a Bruker Avance DMX 600 NMR-spectrometer, which is linked to the dominating resonance of deuterium from the solvent D2O. Chemical shifts are indicated in ppm relative to the background signal of the solvent (4.80 ppm) and couplings in Hz. Precursor Z containing samples (100-200 μg) were freeze-dried and resuspended in 700 μl degassed D2O and 2 μl 36% DCl. For avoidance of oxidation, the pipette was gased for 5 minuites with nitrogen. These solutions were stable enough for recording both 1D- and 2D-COSY-spectra. Subsequent exposure of the solution to air caused the oxidation of the precursor Z to the well-described main single product, compound Z, and this reaction was monitored at regular intervals by recording 1D-^1H-spectra. Under normal conditions, this reaction is concluded after 14 days in D2O and DCl.

E. coli MPT-Synthase = E. coli MPT-Synthase (Escherichia coli, UniProt P30749); assay: In vitro conversion of precursor Z to MPT with purified MPT-synthase; type: biochemical; conditions: double excess of MPT-synthase, HPLC formA analysis
Description: The biological activity of the purified precursor Z could be verified by a quantitive in vitro conversion to MPT tinder use of purified E. coli MPT-Synthase^B26 . […] In order to determine the amount of precursor Z needed for a successful reestablishment of Moco-biosynthesis in MOCS1-deficient mice, we carried out an in vitro reconstitution with various amount of precursor Z in protein-raw extract from the liver of five day old MOCS1-deficient mice carried out (FIG. 6a). In the case of the employment of 134 ng precursor Z/mg protein a near complete reestablishment of Moco-biosynthesis could be achieved, while 27 ng precursor Z led to a reconstitution of approximately 50%. The protein total concentration of the liver extract amounted to 6 mg (obtained from 50 mg total liver tissue) which necessitated a total required amount of precursor Z of 0.8 μg for each animal for complete reestablishment of the MPT-synthesis under in vitro conditions. Accordingly for an adult animal with a body weight of 20 g and an approximate mass or weight of the liver of 1 g, 16 μg precursor Z was needed for complete reestablishment, however only 3 μg for an activation of 50%. […]

[2] = system: MPT-synthesis in MOCS1-deficient liver extracts; assay: In vitro reconstitution of MOCS1-deficient liver extract, nit-1 reconstitution assay; type: biochemical, mice
Protocol: (§1) FIG. 6: Restoration of the MPT-biosynthesis in vitro and in vivo. (a) In vitro restoration of MOCS1-deficient liver extracts with precursor Z. Protein raw extract of a five day old MOCS1^−/− were incubated (1 h) with the indicated amounts of purified precursor Z per mg protein. Restoration of MPT-synthesis was measured by means of nit-1 reconstitution assay. (b-d) Biochemical analysis of precursor Z treated MOCS1-deficient animals. The mice were twice weekly injected with increasing amounts of precursor Z, beginning with 2 μg after birth and up to 8 μg after weaning. Between the days 25-55 after birth the treatment was stopped. On day 0 (4 hours after the last injection), 1, 4 and 7 respectively, two mice were sacrificed. Two liver samples of each animal were removed and separately further processed. Each value in the figure was thus determined four times. Total-MPT inclusive Moco (b), sulphite oxidase activity (c) and xanthine dehydrogenase (d) are indicated as percentage of the corresponding wildtype value (n=4).
The biological activity of the purified precursor Z could be verified by a quantitive in vitro conversion to MPT tinder use of purified E. coli MPT-Synthase^B26 . […] In order to determine the amount of precursor Z needed for a successful reestablishment of Moco-biosynthesis in MOCS1-deficient mice, we carried out an in vitro reconstitution with various amount of precursor Z in protein-raw extract from the liver of five day old MOCS1-deficient mice carried out (FIG. 6a). In the case of the employment of 134 ng precursor Z/mg protein a near complete reestablishment of Moco-biosynthesis could be achieved, while 27 ng precursor Z led to a reconstitution of approximately 50%. The protein total concentration of the liver extract amounted to 6 mg (obtained from 50 mg total liver tissue) which necessitated a total required amount of precursor Z of 0.8 μg for each animal for complete reestablishment of the MPT-synthesis under in vitro conditions. Accordingly for an adult animal with a body weight of 20 g and an approximate mass or weight of the liver of 1 g, 16 μg precursor Z was needed for complete reestablishment, however only 3 μg for an activation of 50%. […] Although the in vitro titration experiment yielded no information regarding which part of the Moco is transmitted to the Apo-sulfhite-oxidase, the investigated or established amount of precursor Z related to the maximal capacity of the MPT-production in the liver of MOCS1-deficient mice.

MOCS1-deficient mice [3] = assay: Lifespan and phenotype of MOCS1-/- mice injected with precursor Z into the liver; type: in vivo; conditions: for Average Lifespan: injected into the liver
Protocol: The half-life of sulphite oxidase in rat liver was determined to be 3-4 days^B27.
The lowest dose amounted to 0.2 μg precursor Z, administered every second day. […] With the administration of 1-2 μg every third day the mice achieved a greater age and were suckled until day 20-30, thereafter the MOCS1^−/ animals however appeared slower in their flight reaction and in their internalization of their environment than the corresponding control animals. This difference disappeared about day 40, after which all MOCS1^−/− animals were as agile and full of life as the control individuals. […] The injection of 2-4 μg precursor Z every third day ws found to be the most successful treatment.

MOCS1-deficient mice [4] = assay: Open field test; type: in vivo; parameters: dose or concentration left out as unconfirmed; conditions: precursor Z every third day
MOCS1-deficient mice [5] = assay: Light/dark box test; type: in vivo; conditions: treated MOCS1-deficient mice
Protocol: Avoidance of light was tested in the light/dark box, in which the animals were placed into the light area and the time was determined until the animals sought out the darker area. […] The results were compared with wild-type controls. The mice were sequentially introduced into all four sectors and the time was measured until the animals found and climbed onto the platform (FIG. 7). […] In a second test series, the average swim time was reduced to 20-25% of the first test both in the “knockout” mice as well as with the control animals. In a third test series, the platform was removed and the time was measured that the mice spent in the “correct” sector—the sector that previously contained the platform. Both groups spent approximately 50% of the time in the correct sector.

MOCS1-deficient mice [6] = assay: Running wheel test; type: in vivo; conditions: 10 and 20 RPM
sulphite oxidase = assay: Sulphite oxidase activity in liver after last injection; type: in vivo, mice
Protocol: as §1, with “Total-MPT inclusive Moco (b), sulphite oxidase activity (c) and xanthine dehydrogenase (d) are indicated as percentage of the corresponding wildtype value (n=4).” left out
In homozygote MOCS1^−/−-animals, in which precursor Z was injected regularly and which appeared normal with regard to weight, appearance and behavior, the treatment was halted and the animals were sacrificed sequentially at days 0, 1, 4 and 7 after the last injection in order to determine the MPT-content and the Mo-enzyme activity in the liver (FIG. 6b-d). Due to the rapid conversion of the administered precursor Z to MPT, the highest MPT-value was measured on the day of the injection (16±1% of the wildtype; FIG. 6b). […]

MOCS1-deficient mice [7] = assay: Xanthin and uric acid in urine of treated knockout mice; type: in vivo; conditions: data not shown
[8] = adult animal, body weight 20 g, liver 1 g

Chain of E. coli MPT-Synthase (P30749 whole entry): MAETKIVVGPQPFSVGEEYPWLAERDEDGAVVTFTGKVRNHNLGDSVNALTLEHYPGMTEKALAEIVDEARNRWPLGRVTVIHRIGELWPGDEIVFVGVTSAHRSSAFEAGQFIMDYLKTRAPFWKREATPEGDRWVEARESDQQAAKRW
Chain of E. coli MPT-Synthase (P30748 whole entry, further chain): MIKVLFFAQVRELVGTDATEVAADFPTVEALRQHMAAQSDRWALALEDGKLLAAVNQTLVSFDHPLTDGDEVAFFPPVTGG

Question: For `Nc1nc2c(c(=O)[nH]1)N[C@@H]1[C@H](N2)O[C@@H]2COP(=O)(O)O[C@@H]2C1(O)O` [precursor Z], which “time until oxidation to compound Z is concluded” value [1] is on record?
Answer: Its value is 14 days.

Question: And the “conversion of precursor Z into MPT” value (E. coli MPT-Synthase)?
Answer: Its value is “almost completely”.

Question: And the reconstitution ([2]; 27 ng precursor Z, liver extract of five day old MOCS1-deficient mice, 1 h)?
Answer: The reconstitution was “approximately 50%”.

Question: And the “reestablishment of Moco-biosynthesis” value ([2]; 134 ng precursor Z/mg protein, liver extract of five day old MOCS1-deficient mice, 1 h)?
Answer: The value was “near complete”.

Question: And the “amount of precursor Z needed for an activation of 50%” value [2, 8]?
Answer: The value was 3 µg.

Question: What about the “amount of precursor Z needed for complete reestablishment” value [2, 8] of the same compound?
Answer: The value was 16 µg.

Question: What about the “total required amount of precursor Z per animal for complete reestablishment of MPT-synthesis” value ([2]; five day old animal, 6 mg liver extract protein, in vitro conditions) of the same compound?
Answer: The value was 0.8 µg.

Question: And the “development and weight gain” value (MOCS1-deficient mice [3]; 0.2 μg every second day, 11 mice)?
Answer: The value was “developed normally”.

Question: What about the “Average Lifespan” value (MOCS1-deficient mice [3]; 0.2 μg every second day) of the same compound?
Answer: Its value is 17.7 days.

Question: What about the “Average Lifespan” value (MOCS1-deficient mice [3]; 1 μg (prior to weaning) and 2 μg (after weaning) every third day) of the same compound?
Answer: Its value is 32.9 days.

Question: What about the “Average Lifespan” value (MOCS1-deficient mice [3]; 1 μg every third day) of the same compound?
Answer: Its value is 25.2 days.

Question: And the “Average Lifespan” value (MOCS1-deficient mice [3]; 2 μg every second day)?
Answer: Its value is 47.4 days.

Question: What about the “fraction of treated animals that died between day 20 and 40” value (MOCS1-deficient mice [3]; 1-2 μg every third day) of the same compound?
Answer: Its value is “Approximately half”.

Question: What about the “deaths between days 40-70” value (MOCS1-deficient mice [3]; 2-4 μg every third day) of the same compound?
Answer: The value was “no animal died”.

Question: And the “offspring of pairings of treated animals” value (MOCS1-deficient mice [3]; 2-4 μg every third day)?
Answer: Its value is “normally developed, healthy off-spring”.

Question: What about the “difference in weight, behavior or other phenotypic characteristics versus wild type or heterozygous siblings” value (MOCS1-deficient mice [3]; prior to weaning) of the same compound?
Answer: The value was “no difference could be determined”.

Question: And the “open field: movement, learning and social behavior versus wildtype” value (MOCS1-deficient mice [4])?
Answer: The value was “no significant differences”.

Question: What about the “light/dark box: time until seeking the darker area versus wild type” value (MOCS1-deficient mice [5]) of the same compound?
Answer: Its value is “no significant difference”.

Question: What about the “running wheel: limitations of movement” value (MOCS1-deficient mice [6]) of the same compound?
Answer: Its value is “Limitations of movement were not shown”.

Question: What about the “sulphite oxidase activity, course” value (sulphite oxidase; day 0 to day 1 after the last injection) of the same compound?
Answer: Its value is “rise”.

Question: What about the “sulphite oxidase activity (% of wildtype) versus reconstituted MPT-content” value (sulphite oxidase; liver) of the same compound?
Answer: Its value is “higher than the reconstituted MPT-content”.

Question: And the “uric acid in the urine” value (MOCS1-deficient mice [7])?
Answer: Its value is “not measurable”.

Question: What about the “xanthin in the urine” value (MOCS1-deficient mice [7]) of the same compound?
Answer: Its value is “very high”.
